# Measured values as given in ChEMBL document CHEMBL3217515, “Synthesis and biological evaluation of 2,3-bis(het)aryl-4-azaindole derivatives as protein kinase inhibitors” (Medchemcomm, 2011).
# Tests used:
# [1] = biological target: RAF proto-oncogene serine/threonine-protein kinase (Homo sapiens, UniProt P04049); assay: Inhibition of RAF1 (unknown origin)
# [2] = biological target: Dual specificity tyrosine-phosphorylation-regulated kinase 1A (Homo sapiens, UniProt Q13627); assay: Inhibition of DYRK1A (unknown origin)
# [3] = biological target: Cyclin-dependent kinase 5 (Homo sapiens, UniProt Q00535); assay: Inhibition of CDK5 (unknown origin)
# [4] = biological target: Glycogen synthase kinase-3 beta (Homo sapiens, UniProt P49841); assay: Inhibition of GSK3beta (unknown origin)
# Chain of Glycogen synthase kinase-3 beta (P49841 whole entry): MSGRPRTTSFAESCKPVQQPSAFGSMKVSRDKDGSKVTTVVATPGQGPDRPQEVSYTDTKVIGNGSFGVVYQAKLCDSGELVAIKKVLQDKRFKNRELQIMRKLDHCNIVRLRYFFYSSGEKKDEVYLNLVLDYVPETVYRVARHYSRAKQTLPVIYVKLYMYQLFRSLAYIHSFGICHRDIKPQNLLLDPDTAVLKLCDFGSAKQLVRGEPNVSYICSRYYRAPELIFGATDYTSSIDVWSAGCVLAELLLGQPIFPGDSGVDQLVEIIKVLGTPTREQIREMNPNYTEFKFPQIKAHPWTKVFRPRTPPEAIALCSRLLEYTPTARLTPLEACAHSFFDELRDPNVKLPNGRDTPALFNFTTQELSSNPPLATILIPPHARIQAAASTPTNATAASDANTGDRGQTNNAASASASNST
# Chain of RAF proto-oncogene serine/threonine-protein kinase (P04049 whole entry): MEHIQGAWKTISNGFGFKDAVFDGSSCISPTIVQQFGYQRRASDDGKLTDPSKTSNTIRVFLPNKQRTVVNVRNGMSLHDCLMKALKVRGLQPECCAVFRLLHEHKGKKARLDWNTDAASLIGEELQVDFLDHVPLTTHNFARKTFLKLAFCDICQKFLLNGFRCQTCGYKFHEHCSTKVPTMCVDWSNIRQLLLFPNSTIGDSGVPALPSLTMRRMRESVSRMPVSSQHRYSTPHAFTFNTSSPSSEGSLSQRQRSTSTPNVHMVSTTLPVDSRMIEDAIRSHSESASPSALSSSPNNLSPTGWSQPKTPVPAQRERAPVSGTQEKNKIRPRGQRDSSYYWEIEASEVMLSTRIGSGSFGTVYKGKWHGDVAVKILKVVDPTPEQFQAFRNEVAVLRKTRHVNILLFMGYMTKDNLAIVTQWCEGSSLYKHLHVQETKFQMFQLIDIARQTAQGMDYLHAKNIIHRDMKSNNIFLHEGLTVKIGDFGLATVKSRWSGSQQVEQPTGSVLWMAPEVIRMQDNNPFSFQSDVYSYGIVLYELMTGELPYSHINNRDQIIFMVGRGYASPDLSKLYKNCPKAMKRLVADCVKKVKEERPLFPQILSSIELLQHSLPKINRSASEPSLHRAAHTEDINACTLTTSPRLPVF
# Chain of Cyclin-dependent kinase 5 (Q00535 whole entry): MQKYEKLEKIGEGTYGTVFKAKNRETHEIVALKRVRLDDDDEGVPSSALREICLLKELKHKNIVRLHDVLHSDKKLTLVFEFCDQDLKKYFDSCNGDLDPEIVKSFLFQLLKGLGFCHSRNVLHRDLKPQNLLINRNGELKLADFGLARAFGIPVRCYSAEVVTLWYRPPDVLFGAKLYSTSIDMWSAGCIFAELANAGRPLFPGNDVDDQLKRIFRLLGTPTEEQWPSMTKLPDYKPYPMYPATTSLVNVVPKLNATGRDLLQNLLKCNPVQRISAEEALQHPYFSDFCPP
compound,measurement,setting,value
COc1ccc2[nH]c(-c3cccc(F)c3)c(-c3ccncc3)c2n1,IC50,[1],4.3 µM
same,IC50,[2],1.8 µM
same,IC50,[3],> 10 µM
same,IC50,[4],> 10 µM
COc1ccc2[nH]c(-c3cc(O)cc(O)c3)c(-c3ccncc3)c2n1,IC50,[1],> 50 µM
same,IC50,[2],> 10 µM
same,IC50,[3],> 10 µM
same,IC50,[4],> 10 µM
COc1ccc2[nH]c(-c3ccccc3)c(-c3ccncc3)c2n1,IC50,[1],3.2 µM
same,IC50,[2],1.3 µM
same,IC50,[3],> 10 µM
same,IC50,[4],> 10 µM
COc1ccc2[nH]c(-c3cccc(O)c3)c(-c3cccnc3)c2n1,IC50,[1],16.5 µM
same,IC50,[2],> 10 µM
same,IC50,[3],> 10 µM
same,IC50,[4],> 10 µM
COc1ccc2[nH]c(-c3cccc(O)c3)c(-c3ccccn3)c2n1,IC50,[1],9.2 µM
same,IC50,[2],> 10 µM
same,IC50,[3],> 10 µM
same,IC50,[4],> 10 µM
COc1ccc2[nH]c(-c3ccc(O)cc3)c(-c3ccncc3)c2n1,IC50,[1],1.3 µM
same,IC50,[2],0.47 µM
same,IC50,[3],> 10 µM
same,IC50,[4],> 10 µM
COc1ccc2[nH]c(-c3ccc4cc(O)ccc4c3)c(-c3ccncc3)c2n1,IC50,[1],> 50 µM
same,IC50,[2],0.84 µM
same,IC50,[3],> 10 µM
same,IC50,[4],> 10 µM
COc1ccc2[nH]c(-c3cccc(O)c3)c(-c3ccncc3)c2n1,IC50,[1],0.286 µM
same,IC50,[2],0.7 µM
same,IC50,[3],> 10 µM
same,IC50,[4],> 10 µM
COc1ccc2[nH]c(-c3ccccc3O)c(-c3ccncc3)c2n1,IC50,[2],0.23 µM
same,IC50,[3],> 10 µM
same,IC50,[4],> 10 µM
